The record followed here is patent US20020071842A1, “Soluble CD1 compositions and uses thereof” (priority 2000, published 2002).

Common to all, as to test: Plate-bound mCD1d fusion protein hybridoma stimulation assay (IL-2 ELISA)
Holding throughout (format): cell-based, mouse
On the technique in general: An ELISA detects its analyte on a solid surface through an enzyme-linked reagent.

One assay has as its system KT/12 hybridoma. Conditions: KT/12 NKT hybridoma; plate-bound mCD1d-IgGFc2a fusion protein preincubated with lipid antigen. From the text: (§1) The CD1d-restricted T cell clones 24.7, 24.8, 24.9 (NKT cell) and 14S.6, 14S.7, 14S.10, and 14S.15 (diverse TCRs) were all derived from spleen of wild type C57BL/6 mice, as described previously (Behar, S. M. et al., J. Immunol., 162:161-7 (1999)). To generate T cell hybridomas, the activated T cells were fused to the aminopterin-sensitive BW5147 αβTCR^− thymoma cell line using PEG1500, and hybrids were selected in HAT medium (Life Technologies, Gaithersburg, Md.). Resulting TT hybridomas were tested for recognition of RMA-S cells transfected with mCD1D1 compared to untransfected RMA-S cells, as described below. […] The hybridomas are distinguished from the original T cell clones by the addition of a letter to their names. The KT/7, KT/12, KT/22, and KT/23 and Vβ/9 NKT cell hybridomas were derived from NK1.1^+ T cells enriched from spleen of C57BL/6 mice by depletion of CD8+ T cells, naive T cells, and B cells by mAbs (anti-B220, CD8, and CD62L, or anti-CD8α, CD8β, and Me114) bound to magnetic microbeads, or to plastic. The purified cells were stimulated either by the anti-CD3 KT3 mAb (KT/7, KT/12, KT/22, KT/23), or by an anti-Vβ8.2 mAb (Vβ/9), and addition of IL-2 or IL-2 and IL-7. After 4-5 days of culture the cells were fused with BW5147 thymoma cells. The VII68, VIII24, XVI9, and XV104 diverse TCR hybridomas were generated from CD4^+ T cells from class 110 mice, as described previously (Cardell, S. et al., J. Exp. Med., 182:993-1004 (1995)). The DN32D3 hybridoma was derived as described (Lantz, O., and Bendelac, A., J. Exp. Med., 180:1097-106 (1994).
(§2) To test for recognition of the mCD1d fusion protein and purified or synthetic antigens, 96 well protein A coated plates (Pierce Chemical Company) were incubated with 400-600 ng/well of the fusion protein or a negative control IgG2a antibody, RPC5.4 or UPC10, in PBS, at pH 7.2. Lipid antigens were diluted into PBS and added where specified at the indicated molar ratio of antigen to fusion protein, (when not specified the ratio was 40:1). Protein A plates containing the fusion protein and antigen were incubated 24-48 hr at 37° C., then washed three times with 200 μl/well sterile PBS, pH 7.2, and two times with 200 μl/well sterile culture medium (containing RPMI supplemented with L-glutamine and penicillin/streptomycin, Life Technologies, Gaithersburg, Md., and 10% bovine calf serum, Hyclone Laboratories, Logan, Utah). For assays in which the PI was phospholipase treated, it was first diluted into 0.01M Tris, 0.15M NaCl, pH 7.5, containing 0.25 U PI-specific phospholipase C or 0.5 U phospholipase D (Sigma, St Louis, Mo.), and incubated 30 minutes at room temperature, then added to the protein A plates as described above. For assays in which the pH was varied during antigen incubation with the fusion protein, the fusion protein and α-GalCer were diluted into a 20 mM citrate/phosphate buffer of the specified pH, which contained 0.15 M NaCl, and after incubation, the samples were neutralized by addition of 1M Tris, pH 7.5. Hybridoma cells were added to fusion protein/antigen treated plates at a concentration of 1×10^5 cells/well, in a total volume of 150 μl/well. Assays were performed using 2-6 replicate wells. In some assays, an anti-mCD1d blocking antibody (19G11) was included at a final concentration of 20 μg/ml. The plates were incubated at 37° C. for 16-20 hr, and culture supernatants were withdrawn for analysis. Each experiment was performed at least three times.
(§3) IL-2 secreted in the hybridoma stimulation assays was quantitated in a double antibody sandwich ELISA, by comparison to a standard curve of purified murine IL-2 (Pharmingen, San Diego, Calif.). Hybridoma plate stimulation supernatants (used either neat or diluted) and serially diluted IL-2 standards were added to 96 well ELISA plates coated with a rat anti-mouse IL-2 capture antibody (Pharmingen). […]

In the next assay the test system is Vβ/9 hybridoma. Particulars: Vβ/9 NKT hybridoma; plate-bound mCD1d-IgGFc2a fusion protein preincubated with lipid antigen.
From the text: as §1, §2, §3

A further assay deals with VII68 hybridoma. Particulars: VII68 diverse TCR hybridoma; plate-bound mCD1d-IgGFc2a fusion protein preincubated with lipid antigen.
From the text: as §1, §2, §3

Another assay concerns XV19 hybridoma. Particulars: XV19 diverse TCR hybridoma; plate-bound mCD1d-IgGFc2a fusion protein preincubated with lipid antigen.
From the text: as §1, §2, §3

A further assay has as its system 24.9.E hybridoma. Particulars: 24.9 E NKT hybridoma; plate-bound mCD1d-IgGFc2a fusion protein preincubated with lipid antigen.
From the text: as §1, §2, §3

Another assay concerns KT/23 hybridoma. Conditions: KT/23 NKT hybridoma; plate-bound mCD1d-IgGFc2a fusion protein preincubated with lipid antigen.
From the text: as §1, §2, §3

For another assay, the system named is XV104 hybridoma. Particulars: XV104 diverse TCR hybridoma; plate-bound mCD1d-IgGFc2a fusion protein preincubated with lipid antigen.
From the text: as §1, §2, §3

For a further assay, the system named is KT/7 hybridoma. Conditions: KT/7 NKT hybridoma; plate-bound mCD1d-IgGFc2a fusion protein preincubated with lipid antigen.
From the text: as §1, §2, §3

In a further assay the test system is DN32D3 hybridoma. Conditions: DN32D3 NKT hybridoma; plate-bound mCD1d-IgGFc2a fusion protein preincubated with lipid antigen.
From the text: as §1, §2, §3

The subject of the next assay is 14S.6.A hybridoma. Particulars: 14S.6.A diverse TCR hybridoma; plate-bound mCD1d-IgGFc2a fusion protein preincubated with lipid antigen.
From the text: as §1, §2, §3

Another assay has as its system 14S.15.A hybridoma. Particulars: 14S.15.A diverse TCR hybridoma; plate-bound mCD1d-IgGFc2a fusion protein preincubated with lipid antigen.
From the text: as §1, §2, §3

For another assay, the system named is VIII24 hybridoma. Particulars: VIII24 diverse TCR hybridoma; plate-bound mCD1d-IgGFc2a fusion protein preincubated with lipid antigen.
From the text: as §1, §2, §3

A further assay relates to KT/22 hybridoma. Particulars: KT/22 NKT hybridoma; plate-bound mCD1d-IgGFc2a fusion protein preincubated with lipid antigen.
From the text: as §1, §2, §3

The next assay deals with 24.7.C hybridoma. Particulars: 24 7.C NKT hybridoma; plate-bound mCD1d-IgGFc2a fusion protein preincubated with lipid antigen.
From the text: as §1, §2, §3

A further assay concerns 14S.7.N hybridoma. Particulars: 14S.7.N diverse TCR hybridoma; plate-bound mCD1d-IgGFc2a fusion protein preincubated with lipid antigen.
From the text: as §1, §2, §3

A further assay concerns 24.8.A hybridoma. Conditions: for IL-2 response to mCD1d fusion protein pre-treated with purified or synthetic lipid: 24.8.A hybridoma, compared to untreated or buffer treated fusion protein.
From the text: as §1, §2
IL-2 secreted in the hybridoma stimulation assays was quantitated in a double antibody sandwich ELISA, by comparison to a standard curve of purified murine IL-2 (Pharmingen, San Diego, Calif.). Hybridoma plate stimulation supernatants (used either neat or diluted) and serially diluted IL-2 standards were added to 96 well ELISA plates coated with a rat anti-mouse IL-2 capture antibody (Pharmingen).

On to `CCCCCCCCCCCCCCCC(=O)OCC(COP(=O)(O)O)OC(=O)CCCCCCCCCCCCCCC` (stereo not drawn) [PA, phosphatidic acid], for which the IL-2 secretion in the assay on KT/12 hybridoma, in the assay with Vβ/9 hybridoma, in the assay with VII68 hybridoma, in the assay on XV19 hybridoma, in the assay with 24.9.E hybridoma and with KT/23 hybridoma was 0 (A “0” indicates a mean of less than 50 pg/ml IL-2 was secreted) in each case. The IL-2 secretion in the assay on XV104 hybridoma, with KT/7 hybridoma, with DN32D3 hybridoma, in the assay on 14S.6.A hybridoma, with 14S.15.A hybridoma and in the assay with VIII24 hybridoma was 0 (A “0” indicates a mean of less than 50 pg/ml IL-2 was secreted) each time. Also, the IL-2 secretion with KT/22 hybridoma is reported as 0 (A “0” indicates a mean of less than 50 pg/ml IL-2 was secreted); in the assay on 24.7.C hybridoma, 0 (A “0” indicates a mean of less than 50 pg/ml IL-2 was secreted); in the assay with 14S.7.N hybridoma it was 0 (A “0” indicates a mean of less than 50 pg/ml IL-2 was secreted); in the assay with 24.8.A hybridoma (24.8 A NKT hybridoma, plate-bound mCD1d-IgGFc2a fusion protein preincubated with lipid antigen) it was “+ (“+” indicates 50-250 pg/ml)”. Also, in the assay on 24.8.A hybridoma, the “IL-2 response to mCD1d fusion protein pre-treated with purified or synthetic lipid” value (from here on “IL-2 response”) is listed as “little or no stimulation”.

For the compound diacyl glyceride [DAG], the IL-2 secretion in the assay with KT/12 hybridoma, with Vβ/9 hybridoma, with VII68 hybridoma, with XV19 hybridoma, in the assay with 24.9.E hybridoma and with KT/23 hybridoma was 0 (A “0” indicates a mean of less than 50 pg/ml IL-2 was secreted) in each case. The IL-2 secretion in the assay on XV104 hybridoma, in the assay on KT/7 hybridoma, in the assay on DN32D3 hybridoma, in the assay with 14S.6.A hybridoma, in the assay with 14S.15.A hybridoma and in the assay with VIII24 hybridoma was 0 (A “0” indicates a mean of less than 50 pg/ml IL-2 was secreted) each time. The IL-2 secretion in the assay on KT/22 hybridoma, in the assay with 24.7.C hybridoma and in the assay on 14S.7.N hybridoma was 0 (A “0” indicates a mean of less than 50 pg/ml IL-2 was secreted) in each case. Moreover, the “IL-2 response” value in the assay on 24.8.A hybridoma is given as “little or no stimulation”.

On to `O[C@H]1[C@H](O)[C@@H](O)[C@H](O)[C@@H](O)[C@H]1O` [inositol], for which the “IL-2 response” value in the assay on 24.8.A hybridoma is “little or no stimulation”.

In the case of phosphatidylethanolamine [PE], the IL-2 secretion was 0 (A “0” indicates a mean of less than 50 pg/ml IL-2 was secreted) with 24.9.E hybridoma; 0 (A “0” indicates a mean of less than 50 pg/ml IL-2 was secreted) with DN32D3 hybridoma; “+ (“+” indicates 50-250 pg/ml)” in the assay with 14S.6.A hybridoma; 0 (A “0” indicates a mean of less than 50 pg/ml IL-2 was secreted) with 14S.15.A hybridoma; 0 (A “0” indicates a mean of less than 50 pg/ml IL-2 was secreted) in the assay on 24.7.C hybridoma; 0 (A “0” indicates a mean of less than 50 pg/ml IL-2 was secreted) in the assay with 14S.7.N hybridoma. Also, the “IL-2 response” value in the assay on 24.8.A hybridoma is on record as “dose dependent responses”.

Regarding `CCCCCCCCCCCCCCCC(=O)O` [palmitate, Palmitic acid], the “IL-2 response” value in the assay on 24.8.A hybridoma is “little or no stimulation”.
